Measured values as given in patent publication US10507212B2, “Method for use of homopiperazinium compounds in the treatment of cancer” (UNIVERSITÉ LAVAL, priority 2014, dated 2019).
Where two headings read alike, the source gives them in different places.

Key:
[1] = system: A549 adenocarcinoma cell line; test: Cell proliferation assay, A549 (MTT); settings: for IC50: Tosylate
Procedure: (§1) In vitro experiments were conducted on four cancer cell lines: the A549 adenocarcinoma cell line, the H520 squamous cell carcinoma the H82 small cell lung carcinoma and Calu 3 lung adenocarcinoma. The A549 tumor cells, were plated at a density of 1.5×10^4 cells per mL and let to adhere on 96-well microplates in F12K cell culture medium enriched with 10% fetal calf serum (FCS). The H520, H82 and Calu 3 tumor cells were plated at a density of 5×10^4 cells per mL in RPMI+10% FCS. After 24 h in culture, the medium was changed and cells were exposed to ASM-024 at concentrations ranging from 10^−7M to 10^−3M (FIGS. 1A-1C). After 3 and 6 days in culture, cell growth was quantified using the MTT colorimetric assay (M2128, Sigma) at 575-690 nm or the Cell Titer fluorescence assay (G8080, Promega) at 560/590 nm.
(§2) In an another set of experiments, a series of 16 other homopiperazinium compounds, in addition to ASM-024, were tested for their anti-proliferative effect on the four tumor cell lines described above after up to 6 days in culture at concentrations of 10^-7M to 10^-3M. (FIGS. 4A-4E) Cell growth was quantified using the MTT colorimetric assay for the A-549, H520 and Calu 3 cell lines and the CellTiter Fluorescence assay.for the H82 tumor cell line These are established method of determining viable cell number in proliferation studies.

[2] = system: H82 small cell lung carcinoma; test: Cell proliferation assay, H82 (CellTiter fluorescence); assay type: cell-based; settings: for IC50: Homo sapiens
Procedure: as §1, §2

[3] = system: Calu 3 lung adenocarcinoma; test: Cell proliferation assay, Calu 3 (MTT); assay type: cell-based; settings: Homo sapiens
Procedure: as §1, §2

[4] = system: MCF7; test: Anti-proliferative MTT assay, MCF7; assay type: cell-based; settings: Homo sapiens
Procedure: (§3) The effect of ASM-024 on the growth of MCF7, SK-BR-3, MDA-MB-231, BT-474 (mammary adenocarcinomas), SK-OV/3 (ovary adenocarcinoma), PC3 (prostate adenocarcinoma) SK-MEL-28(skin melanoma) and C6 (tumor cell glioma) was evaluated. Cells were cultured in RPMI medium and incubated with different concentrations of ASM-024. Cell proliferation was measured on days 3 and 6 by the MTT colorimetric assay. Absorbance at 576-690 nm was analyzed with a microplate reader and expressed as optical density (OD) and as a percentage of the value of corresponding untreated cells. The IC50 was determined as the drug concentration required to inhibit cell growth by 50% from a plot of percent cell viability from control untreated cells versus treated cells.

[5] = system: SK-BR-3; test: Anti-proliferative MTT assay, SK-BR-3; assay type: cell-based; settings: Homo sapiens
Procedure: as §3

[6] = system: BT-474; test: Anti-proliferative MTT assay, BT-474; assay type: cell-based; settings: Homo sapiens
Procedure: as §3

[7] = system: SK-OV/3; test: Anti-proliferative MTT assay, SK-OV/3; assay type: cell-based; settings: Homo sapiens
Procedure: as §3

[8] = system: SK-MEL-28; test: Anti-proliferative MTT assay, SK-MEL-28; assay type: cell-based; settings: Homo sapiens
Procedure: as §3

[9] = system: C6; test: Anti-proliferative MTT assay, C6; assay type: cell-based; settings: Rattus norvegicus
Procedure: as §3

[10] = system: A549 cells; test: In vivo antitumor assay, A549 tumor cell-bearing nu/nu mice (Example 27); settings: 30 mg/kg daily, subcutaneous or intraperitoneal
Procedure: For the in vivo antitumor assay, nu/nu mice were inoculated subcutaneously in the flank of mice with 2×10^6 A549 cells in sterile PBS mixed with 50% matrigel. Two days later ASM-024 was administered daily by subcutaneous (at a site close to the tumor) or intraperitoneal delivery at the dose of 30 mg/kg for up to 50 days. When palpable, tumor length and width were measured with a caliper and tumor volume calculated according to the formula Volume=(width2×length)/2.
FIGS. 6A, 6B, 7A and 7B are illustrating the antitumor effect of ASM-024 in A549 tumor cell-bearing mice after 51 days. The antitumor effect of each delivery mode was evaluated by measuring tumor volume (FIGS. 6A and 6B) and weight (FIGS. 7A and 7B). Values are presented as the mean±standard deviation.

[11] = system: A549 lung adenocarcinoma; test: In vitro combination treatment with cisplatin or taxol, A549 (MTT); assay type: cell-based, human; settings: ASM-024 alone, 3 days of drug treatment
Procedure: The concomitant effect of ASM-024 and cisplatin or taxol on the proliferation of A549 lung adenocarcinoma and MCF7 breast cancer adenocarcinoma cells was assessed in vitro.
A549 cells (3.0×10^3cells/well) were first cultured with 10% FBS in F12K media and MCF7 cells (10×10^3 cells/well) with 10% FBS in EMEM media for 24 hours to allow cells to adhere to the plate at 37° C. in a humidified incubator with 5% CO2. The next day, the media was replaced in medium containing appropriate drug concentrations […] for an additional 72 hours. Cell viability was quantified using the MTT colorimetric assay (M2128, Sigma) at 575-690 nm.

[12] = system: A549 human lung carcinoma cells; test: In vivo antitumor assay, A549 xenograft in Balb/c nude mice (Example 29); settings: day 49; ASM-024 45 mg/kg s.c. daily day 14-38; taxol 10 mg/kg i.p. days 21, 28, 35; cisplatin 2.5 mg/kg i.p. days 28, 35
Procedure: For the in vivo antitumor assay, A549 human lung carcinoma cells (3.5×106) in 50% F12K medium (Matrigel) were implanted subcutaneously in the flank of Balb/c nude mice (nu/nu, Charles River) and allowed to grow for 14 days. ASM-024 was administered daily by subcutaneous delivery at the dose of 45 mg/kg from day 14 to day 38 post cell inoculation. Taxol was administrated intraperitoneally at the dose of 10 mg/kg on days 21, 28 and 35. Cisplatin was administrated intraperioneally at the dose of 2.5 mg/kg on days 28 and 35. From day 14 to day 49, tumor length and width were measured once or twice a week with a caliper and tumor volume calculated according to the formula Volume=(width2×length)/2.

- IC50 ([1]; read-out: IC50 Day 3, A549, day 3 in culture): 56 ± 20 µM
- IC50 ([1]; read-out: IC50 Day 6, A549, day 6 in culture): 59 ± 21 µM
- IC50 ([2]; NCI-H82, 72 h, H82, day 3 in culture, read-out: IC50 Day 3): 314 ± 205 µM
- IC50 ([2]; NCI-H82, 144 h, H82, day 6 in culture, read-out: IC50 Day 6): 218 ± 76 µM
- IC50 ([3]; 72 h, Calu 3, day 3 in culture, read-out: IC50 Day 3): 685 ± 320 µM
- IC50 ([3]; 144 h, Calu 3, day 6 in culture, read-out: IC50 Day 6): 192 ± 217 µM
- IC50 ([4]; 72 h, MCF7, day 3, read-out: IC50 Day 3): 470 ± 364 µM
- IC50 ([4]; 144 h, MCF7, day 6, read-out: IC50 Day 6): 209 ± 42 µM
- IC50 ([5]; 72 h, SK-BR-3, day 3, read-out: IC50 Day 3): > 1000 µM
- IC50 ([5]; 144 h, SK-BR-3, day 6, read-out: IC50 Day 6): 197 ± 67 µM
- IC50 ([6]; 72 h, BT-474, day 3, read-out: IC50 Day 3): > 1000 µM
- IC50 ([6]; 144 h, BT-474, day 6, read-out: IC50 Day 6): 644 ± 230 µM
- IC50 ([7]; 72 h, SK-OV/3, day 3, read-out: IC50 Day 3): > 600 µM
- IC50 ([7]; 144 h, SK-OV/3, day 6, read-out: IC50 Day 6): 618 ± 125 µM
- IC50 ([8]; 72 h, SK-MEL-28, day 3, read-out: IC50 Day 3): > 800 µM
- IC50 ([8]; 144 h, SK-MEL-28, day 6, read-out: IC50 Day 6): 259 ± 63 µM
Compound: CC[N+]1(CC)CCCN(c2ccccc2)CC1.Cc1ccc(S(=O)(=O)[O-])cc1 [ASM-024, 1,1-Diethyl-4-phenyl-homopiperazinium Tosylate]
- cell proliferation / cell growth inhibition (in words) ([1]; A549, day 3 and day 6, text on figures): dose-dependent decrease in cell proliferation
- cell proliferation / cell growth inhibition (in words) ([2]; H82, day 3 and day 6, text on figures): dose-dependent decrease in cell proliferation
- IC50 ([9]; 72 h, C6, day 3, read-out: IC50 Day 3): 353 ± 52 µM
- IC50 ([9]; 144 h, C6, day 6, read-out: IC50 Day 6): 186 ± 27 µM
- Tumor growth, as determined by mean tumor volumes ([10]; 51 days of observation, vs control mice): reduced
- Mean tumor weight after surgical resection ([10]; after 51 days, vs vehicle-treated control mice): reduction in tumor mass
- A549 cell growth inhibition [11]: dose-dependent growth inhibition of cell proliferation
- A549 human carcinoma tumor growth (tumor volume) [12]: decrease in A549 human carcinoma tumor growth
